Test results from ChEMBL document CHEMBL1201862, “PubChem BioAssay data set” (2004).
Calls of active or inactive are those of the source.

How the values were obtained:
[1] = target: T1, Botulinum neurotoxin type A (Clostridium botulinum (strain Hall / ATCC 3502 / NCTC 13319 / Type A), UniProt P0DPI1); test: Confirmatory FRET assay using full length substrates for Botulinum neurotoxin light chain A protease, with Powder Set01.; format: functional
[2] = target: T1, Botulinum neurotoxin type A; test: High-throughput multiplex microsphere dose response for inhibitors of toxin protease, specifically Botulinum neurotoxin light chain A protease, compounds from Powder Set 01.; format: functional, Clostridium botulinum A str. ATCC 3502; conditions: read-out: EC50_MICROM
[3] = target: Botulinum neurotoxin type F (Clostridium botulinum, UniProt P30996); test: High-throughput multiplex microsphere dose response for inhibitors of toxin protease, specifically Botulinum neurotoxin light chain F protease, compounds from Powder Set 01.; format: functional, Clostridium botulinum Bf; conditions: read-out: EC50_MICROM
[4] = target: Lethal factor (Bacillus anthracis, UniProt P15917); test: High-throughput multiplex microsphere dose response for inhibitors of toxin protease, specifically Lethal Factor protease, compounds from Powder Set 01.; format: functional, Bacillus anthracis str. A2012; conditions: read-out: EC50_MICROM
[5] = HeLa cell cytotoxicity, dose response, cytotoxicity control for MgcRacGAP inhibitor project (AID 624300); format: functional
[6] = target: T2, Rac GTPase-activating protein 1 (Homo sapiens, UniProt Q9H0H5); test: MgcRacGAP GTPase-activating activity inhibitors, confirmation, biochemical, ADP Hunter fluorescence, primary and confirmatory (AID 624330); format: functional
T2 sequence (Q9H0H5 whole entry): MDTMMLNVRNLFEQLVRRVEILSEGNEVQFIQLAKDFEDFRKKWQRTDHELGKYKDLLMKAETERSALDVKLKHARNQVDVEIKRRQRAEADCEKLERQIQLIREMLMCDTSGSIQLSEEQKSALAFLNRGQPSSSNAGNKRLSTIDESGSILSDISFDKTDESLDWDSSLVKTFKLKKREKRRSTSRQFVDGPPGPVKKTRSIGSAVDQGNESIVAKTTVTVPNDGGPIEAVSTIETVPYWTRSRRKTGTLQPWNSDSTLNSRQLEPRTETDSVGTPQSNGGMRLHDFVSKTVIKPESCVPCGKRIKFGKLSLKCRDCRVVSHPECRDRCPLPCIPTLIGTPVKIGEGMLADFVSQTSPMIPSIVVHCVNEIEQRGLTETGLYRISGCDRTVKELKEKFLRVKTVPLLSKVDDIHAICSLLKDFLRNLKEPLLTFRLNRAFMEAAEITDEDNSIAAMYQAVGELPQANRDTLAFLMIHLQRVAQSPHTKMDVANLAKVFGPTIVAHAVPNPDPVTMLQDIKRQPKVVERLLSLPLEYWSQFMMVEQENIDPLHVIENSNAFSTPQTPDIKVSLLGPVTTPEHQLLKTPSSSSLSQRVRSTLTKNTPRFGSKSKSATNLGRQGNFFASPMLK

[7] = target: Cytochrome P450 2C9 (Homo sapiens, UniProt P11712)
[8] = target: T3, Sentrin-specific protease 1 (Homo sapiens, UniProt Q9P0U3); test: Dose response confirmation of small molecule inhibitors of the catalytic domain of the SUMO protease, SENP1 in a FRET assay.; format: functional; conditions: read-out: IC50_Mean
[9] = target: T3, Sentrin-specific protease 1; test: potency of human SENP1 inhibitors, dose response, biochemical, kinetic FRET (AID 651697); format: functional; conditions: read-out: IC50_Mean
[10] = target: T4, Beta-lactamase (Pseudomonas aeruginosa, UniProt Q79MP6); test: IMP-1 metallo-beta-lactamase inhibitors, dose response, selectivity assay for VIM-2 inhibitor project, biochemical, epi-absorbance (AID 1920)
[11] = target: Beta-lactamase (Salmonella choleraesuis (strain SC-B67), UniProt Q5J463); test: Epi-absorbance-based counterscreen for selective VIM-2 inhibitors: dose response biochemical high throughput screening assay to identify inhibitors of TEM-1 serine-beta-lactamase.
[12] = target: T4, Beta-lactamase; test: […] counterscreen for selective VIM-2 inhibitors: dose response biochemical high throughput screening assay to identify inhibitors of IMP-1 metallo-beta-lactamase.
[13] = target: T5, Sentrin-specific protease 8 (Homo sapiens, UniProt Q96LD8); format: functional
T5 sequence (Q96LD8 whole entry): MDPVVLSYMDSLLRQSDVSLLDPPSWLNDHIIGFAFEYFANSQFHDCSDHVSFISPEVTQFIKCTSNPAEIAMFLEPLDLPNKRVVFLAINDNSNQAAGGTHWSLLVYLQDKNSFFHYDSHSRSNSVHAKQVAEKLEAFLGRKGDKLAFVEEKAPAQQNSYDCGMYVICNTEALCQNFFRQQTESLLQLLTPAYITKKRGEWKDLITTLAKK

[14] = target: T5, Sentrin-specific protease 8; format: functional; remark: listed apart in the source
[15] = target: T6, Caspase-3 (Homo sapiens, UniProt P42574); test: Dose-response confirmation of uHTS inhibitor hits of Sentrin-Specific Protease 8 in a Caspase-3 Fluorescence assay.; format: functional
T6 sequence (P42574 whole entry): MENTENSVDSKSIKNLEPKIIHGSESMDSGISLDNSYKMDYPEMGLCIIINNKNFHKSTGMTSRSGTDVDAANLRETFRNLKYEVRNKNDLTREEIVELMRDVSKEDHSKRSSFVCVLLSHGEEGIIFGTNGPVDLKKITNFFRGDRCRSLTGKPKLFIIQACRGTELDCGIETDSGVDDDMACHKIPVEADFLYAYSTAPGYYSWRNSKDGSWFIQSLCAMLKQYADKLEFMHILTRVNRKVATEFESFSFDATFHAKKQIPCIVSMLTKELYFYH

[16] = L. donovani amastigote growth inhibition, dose response, axenic amastigotes, plate reader, cherry pick (AID 651891); format: functional, cell-based; conditions: Leishmania donovani
[17] = cytotoxicity in L-6 rat myocytes, dose response, cytotoxicity control, cell-based, plate reader, cherry-pick (AID 651896); format: functional
[18] = Inhibition of Plasmodium falciparum NF54 Measured in Cell-Based System Using Plate Reader - 2138-11_Inhibitor_Dose_CherryPick_Activity.; format: functional
[19] = Inhibition of T. cruzi Tulahuen strain amastigotes in L-6 muscle cells Measured in Cell-Based and Microorganism Combination System Using Plate Reader - 2138-03_Inhibitor_Dose_CherryPick_Activity.; format: functional; conditions: Rattus norvegicus, L6
[20] = T. b. rhodesiense proliferation inhibition, dose response, STIB900 strain, plate reader, cherry pick (AID 651893); format: functional, cell-based; conditions: Trypanosoma brucei
[21] = target: Palmitoyl-protein thioesterase ABHD10, mitochondrial (Mus musculus, UniProt Q6PE15); test: Late stage assay provider results from the probe development effort to identify inhibitors of PME-1: fluorescence-based dose response biochemical gel-based competitive Activity-Based Protein Profiling (ABPP) inhibition of ABHD10 Set 1.; format: functional
[22] = DNA binding of candidate compounds, dose response, artefact control for RAD54 inhibitor project, biochemical, fluorescence polarization, cherry-pick (AID 651673); format: functional
[23] = target: T7, DNA repair protein RAD52 homolog (Homo sapiens, UniProt P43351); format: functional, biochemical
T7 sequence (P43351 whole entry): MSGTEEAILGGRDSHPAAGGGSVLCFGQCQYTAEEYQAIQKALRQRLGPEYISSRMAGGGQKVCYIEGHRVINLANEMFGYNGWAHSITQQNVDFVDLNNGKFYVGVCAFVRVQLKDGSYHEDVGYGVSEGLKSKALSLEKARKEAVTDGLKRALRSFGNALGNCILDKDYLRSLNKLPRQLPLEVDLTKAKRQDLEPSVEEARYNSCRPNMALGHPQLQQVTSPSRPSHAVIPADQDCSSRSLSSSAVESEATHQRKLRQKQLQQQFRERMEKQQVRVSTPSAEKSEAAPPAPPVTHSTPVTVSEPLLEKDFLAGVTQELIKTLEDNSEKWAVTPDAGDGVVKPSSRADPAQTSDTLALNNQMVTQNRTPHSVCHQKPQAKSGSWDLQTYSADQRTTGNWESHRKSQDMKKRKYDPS

[24] = target: T8, DNA repair and recombination protein RAD54-like (Homo sapiens, UniProt Q92698); test: inhibitors of human RAD54 branch migration, confirmation, biochemical, fluorescence, cherry-picked samples, dose series (AID 651657); format: functional
T8 sequence (Q92698 whole entry): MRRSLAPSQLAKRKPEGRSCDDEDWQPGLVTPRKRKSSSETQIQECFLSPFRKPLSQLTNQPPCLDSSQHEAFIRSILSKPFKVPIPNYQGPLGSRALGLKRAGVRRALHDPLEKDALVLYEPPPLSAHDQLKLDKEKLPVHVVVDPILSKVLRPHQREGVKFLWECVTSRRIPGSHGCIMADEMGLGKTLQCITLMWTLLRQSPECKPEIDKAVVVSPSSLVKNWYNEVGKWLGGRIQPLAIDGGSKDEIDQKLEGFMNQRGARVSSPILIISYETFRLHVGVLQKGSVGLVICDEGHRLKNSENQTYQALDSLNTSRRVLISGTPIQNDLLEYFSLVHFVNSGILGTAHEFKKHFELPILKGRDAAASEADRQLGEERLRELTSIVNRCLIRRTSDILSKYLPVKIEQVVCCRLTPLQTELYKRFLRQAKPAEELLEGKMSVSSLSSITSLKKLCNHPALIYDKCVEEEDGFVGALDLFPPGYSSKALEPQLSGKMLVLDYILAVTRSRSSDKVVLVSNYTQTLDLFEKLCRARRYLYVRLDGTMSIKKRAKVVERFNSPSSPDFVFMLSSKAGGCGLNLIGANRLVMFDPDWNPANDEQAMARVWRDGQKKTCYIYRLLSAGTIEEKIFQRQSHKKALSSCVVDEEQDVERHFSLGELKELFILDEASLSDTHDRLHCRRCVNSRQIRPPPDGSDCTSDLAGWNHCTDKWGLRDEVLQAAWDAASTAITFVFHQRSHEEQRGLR

[25] = NIH/3T3 fibroblast cytotoxicity, dose response, cytotoxicity control for T. cruzi growth inhibitor project, cell-based, cherry-pick samples, set 2 (AID 651817); format: functional; conditions: NIH3T3
[26] = miR-122 activators in hepatoma reporter cells, dose response, cell-based, Huh7 psiCHECK-miR122, Renilla luciferase, cherry-picked (AID 651956); format: functional;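 also: huh7 hepatoma cells stably carrying a psiCHECK-2 miR-122 sensor plasmid; renilla luciferase signal reporting endogenous miR-122 activity after 48 h compound exposure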
[27] = target: Protein S100-A4 (Homo sapiens, UniProt P26447); test: S100A4-myosin IIA binding inhibitor potency, dose response, biochemical, fluorescence polarization, cherry-picked hits (AID 687001); format: functional
[28] = tested on: BJ; test: cytotoxicity toward BJ-TERT-LT-ST fibroblasts, dose response, cell-based, RAS-independent, luminescence (AID 1935); format: functional; conditions: Homo sapiens;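 also: BJ fibroblasts immortalized with TERT plus LT and ST oncogenes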
[29] = tested on: BJ; test: cytotoxicity toward Ras-transformed BJeLR fibroblasts, dose response, cell-based, alamar blue fluorescence, cherrypicked samples (AID 2631); format: functional; conditions: Homo sapiens;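 also: confirmatory dose-response assay in RAS-dependent BJ fibroblasts engineered with TERT, LT and ST, with cytotoxicity read by fluorescence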
[30] = control 3'UTR Renilla luciferase suppression, dose response, counter-screen for Shn3 inhibitor project, cell-based, Clone20-Shn3RL, cherry-picked (AID 624133); format: functional
[31] = HepG2 cell cytotoxicity, dose response, cytotoxicity control for Shn3 inhibitor project, CellTiter-Glo, cherry-picked (AID 624134); format: functional, cell-based
[32] = Shn3 3'UTR reporter inhibitors, dose response, cell-based, Clone20 osteoblasts, firefly luciferase, cherry-picked (AID 624132); format: functional;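 also: firefly luciferase luminescence from reporter carrying the Shn3 3'UTR in osteoblasts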
[33] = cytotoxicity toward DRD oncogenic fibroblasts, dose response, cell-based, non-viral oncogenic, luminescence (AID 1934); format: functional; conditions: Homo sapiens
[34] = tested on: BJ; test: cytotoxicity toward BJ-TERT fibroblasts, dose response, cell-based, RAS-independent, luminescence (AID 1933); format: functional; conditions: Homo sapiens
[35] = HEK293T cell cytotoxicity, dose response, cytotoxicity control for HIV Vif inhibitor project, cherry-picks (AID 652208); format: functional, cell-based

T3 sequence (Q9P0U3 whole entry, the tested form may be a part): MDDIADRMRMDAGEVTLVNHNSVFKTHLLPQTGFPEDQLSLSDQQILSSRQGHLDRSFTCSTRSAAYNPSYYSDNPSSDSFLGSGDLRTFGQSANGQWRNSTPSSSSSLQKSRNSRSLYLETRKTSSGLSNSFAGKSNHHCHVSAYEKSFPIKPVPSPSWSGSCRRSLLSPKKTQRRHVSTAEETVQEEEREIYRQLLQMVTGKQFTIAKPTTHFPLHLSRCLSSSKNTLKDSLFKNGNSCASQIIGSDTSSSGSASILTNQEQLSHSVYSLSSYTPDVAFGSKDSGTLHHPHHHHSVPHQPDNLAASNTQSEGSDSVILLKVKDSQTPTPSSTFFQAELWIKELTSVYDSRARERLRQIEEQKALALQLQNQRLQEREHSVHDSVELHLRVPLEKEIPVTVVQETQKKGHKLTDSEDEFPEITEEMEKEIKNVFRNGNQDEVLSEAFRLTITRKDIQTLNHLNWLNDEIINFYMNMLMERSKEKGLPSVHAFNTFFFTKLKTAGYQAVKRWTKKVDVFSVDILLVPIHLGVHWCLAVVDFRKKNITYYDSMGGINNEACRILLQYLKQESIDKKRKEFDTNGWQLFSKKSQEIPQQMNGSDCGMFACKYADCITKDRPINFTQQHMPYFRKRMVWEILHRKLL
T4 sequence (Q79MP6 whole entry): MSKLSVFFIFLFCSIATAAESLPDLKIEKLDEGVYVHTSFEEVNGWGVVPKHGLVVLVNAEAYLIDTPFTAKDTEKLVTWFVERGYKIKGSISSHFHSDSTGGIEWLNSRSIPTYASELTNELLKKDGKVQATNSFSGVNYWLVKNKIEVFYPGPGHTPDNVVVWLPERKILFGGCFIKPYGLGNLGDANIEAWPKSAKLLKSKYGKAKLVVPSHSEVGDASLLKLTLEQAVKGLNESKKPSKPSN
T1 sequence (P0DPI1 2-448 limits assumed): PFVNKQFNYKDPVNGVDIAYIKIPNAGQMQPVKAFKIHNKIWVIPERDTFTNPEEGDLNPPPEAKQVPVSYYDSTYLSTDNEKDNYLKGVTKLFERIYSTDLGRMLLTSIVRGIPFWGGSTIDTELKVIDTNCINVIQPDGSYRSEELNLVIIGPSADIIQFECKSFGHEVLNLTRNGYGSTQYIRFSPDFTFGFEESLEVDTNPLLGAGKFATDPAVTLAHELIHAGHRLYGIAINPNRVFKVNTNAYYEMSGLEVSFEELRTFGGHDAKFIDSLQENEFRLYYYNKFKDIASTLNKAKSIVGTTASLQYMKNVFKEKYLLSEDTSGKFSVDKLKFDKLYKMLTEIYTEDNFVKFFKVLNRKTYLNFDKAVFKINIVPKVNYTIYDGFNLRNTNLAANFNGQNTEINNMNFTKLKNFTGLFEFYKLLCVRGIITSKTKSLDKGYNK
Palmitoyl-protein thioesterase ABHD10, mitochondrial, sequence (Q6PE15 whole entry): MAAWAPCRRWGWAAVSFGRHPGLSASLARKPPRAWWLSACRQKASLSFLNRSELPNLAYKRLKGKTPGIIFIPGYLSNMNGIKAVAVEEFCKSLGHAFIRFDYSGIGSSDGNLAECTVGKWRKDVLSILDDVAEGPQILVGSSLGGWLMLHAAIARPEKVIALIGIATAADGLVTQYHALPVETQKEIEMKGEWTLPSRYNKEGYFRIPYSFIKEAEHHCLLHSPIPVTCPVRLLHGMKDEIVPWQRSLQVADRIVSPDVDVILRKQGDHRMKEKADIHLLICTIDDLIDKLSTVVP
Cytochrome P450 2C9, sequence (P11712 whole entry, the tested form may be a part): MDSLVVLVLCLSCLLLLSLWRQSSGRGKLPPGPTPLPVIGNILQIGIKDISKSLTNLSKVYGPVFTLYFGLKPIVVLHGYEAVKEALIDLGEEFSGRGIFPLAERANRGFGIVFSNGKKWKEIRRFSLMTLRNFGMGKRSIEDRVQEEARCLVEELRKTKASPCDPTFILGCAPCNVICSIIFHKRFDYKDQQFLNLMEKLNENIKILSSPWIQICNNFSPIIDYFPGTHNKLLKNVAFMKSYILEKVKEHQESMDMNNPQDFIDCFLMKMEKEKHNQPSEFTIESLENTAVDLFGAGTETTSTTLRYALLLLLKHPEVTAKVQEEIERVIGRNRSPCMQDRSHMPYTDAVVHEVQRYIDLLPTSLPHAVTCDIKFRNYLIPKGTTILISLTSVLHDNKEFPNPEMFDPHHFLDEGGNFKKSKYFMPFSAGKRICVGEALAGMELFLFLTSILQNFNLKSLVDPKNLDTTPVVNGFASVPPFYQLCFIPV
Beta-lactamase (Salmonella choleraesuis (strain SC-B67), UniProt Q5J463), sequence (Q5J463 whole entry): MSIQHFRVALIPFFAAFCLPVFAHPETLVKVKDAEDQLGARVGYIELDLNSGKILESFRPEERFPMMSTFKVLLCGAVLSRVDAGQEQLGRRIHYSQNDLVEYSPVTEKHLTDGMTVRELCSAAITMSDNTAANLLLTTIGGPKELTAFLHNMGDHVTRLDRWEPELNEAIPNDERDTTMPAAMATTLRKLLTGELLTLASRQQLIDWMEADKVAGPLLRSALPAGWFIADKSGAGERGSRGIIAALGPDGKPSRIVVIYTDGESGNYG
Lethal factor, sequence (P15917 whole entry): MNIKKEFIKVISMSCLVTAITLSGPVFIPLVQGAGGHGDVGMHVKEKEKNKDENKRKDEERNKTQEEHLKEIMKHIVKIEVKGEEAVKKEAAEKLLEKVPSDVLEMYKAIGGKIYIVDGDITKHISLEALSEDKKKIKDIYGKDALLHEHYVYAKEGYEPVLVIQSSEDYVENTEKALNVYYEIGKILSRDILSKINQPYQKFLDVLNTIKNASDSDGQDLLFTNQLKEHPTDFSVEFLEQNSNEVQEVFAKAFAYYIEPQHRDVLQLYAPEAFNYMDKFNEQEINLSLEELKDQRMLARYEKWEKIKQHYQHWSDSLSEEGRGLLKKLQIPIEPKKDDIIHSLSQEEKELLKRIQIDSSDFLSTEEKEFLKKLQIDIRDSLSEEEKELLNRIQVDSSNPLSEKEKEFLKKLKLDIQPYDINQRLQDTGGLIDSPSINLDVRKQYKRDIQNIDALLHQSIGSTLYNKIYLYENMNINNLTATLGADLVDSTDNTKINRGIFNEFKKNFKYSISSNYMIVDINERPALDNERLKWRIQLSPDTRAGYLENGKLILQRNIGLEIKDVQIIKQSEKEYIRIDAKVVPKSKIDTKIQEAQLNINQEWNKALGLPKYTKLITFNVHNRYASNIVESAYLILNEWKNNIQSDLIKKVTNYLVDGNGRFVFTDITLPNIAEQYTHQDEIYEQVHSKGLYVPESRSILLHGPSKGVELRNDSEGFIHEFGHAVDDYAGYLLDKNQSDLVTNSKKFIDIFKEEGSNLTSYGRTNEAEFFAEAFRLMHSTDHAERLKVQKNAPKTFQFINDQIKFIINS
Botulinum neurotoxin type F, sequence (P30996 1-436 limits assumed): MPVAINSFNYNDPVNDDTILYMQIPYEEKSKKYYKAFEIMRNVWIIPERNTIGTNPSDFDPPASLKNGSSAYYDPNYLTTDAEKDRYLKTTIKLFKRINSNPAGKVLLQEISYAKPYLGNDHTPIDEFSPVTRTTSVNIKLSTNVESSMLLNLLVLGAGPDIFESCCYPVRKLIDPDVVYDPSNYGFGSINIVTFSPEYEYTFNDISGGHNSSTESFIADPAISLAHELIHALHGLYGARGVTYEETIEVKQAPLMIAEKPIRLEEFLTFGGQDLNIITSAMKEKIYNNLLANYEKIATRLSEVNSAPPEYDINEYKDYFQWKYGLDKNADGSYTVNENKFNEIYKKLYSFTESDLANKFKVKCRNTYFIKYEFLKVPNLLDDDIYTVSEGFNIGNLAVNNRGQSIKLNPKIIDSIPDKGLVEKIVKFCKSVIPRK
Protein S100-A4, sequence (P26447 whole entry): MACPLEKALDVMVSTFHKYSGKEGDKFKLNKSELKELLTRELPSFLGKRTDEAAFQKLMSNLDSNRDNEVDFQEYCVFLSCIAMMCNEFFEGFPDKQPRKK

Cc1ccc(-c2cn3nc(-c4ccccc4)c(-c4ccccc4)nc3n2)cc1
EC50 [1]: 2.5 µM (active)
EC50 [2]: 1.5 µM (active)
EC50 [3]: 9.1 µM (active)
EC50 [4]: 2 µM (active)

CN(C)CCCN1c2ccc3ccccc3c2Sc2cccc(Cl)c21
CC50 [5]: 42.8 µM (active)
IC50 [6]: 48.9 µM (active)
AC50 [7]: 7.94 µM (inconclusive)

COc1cc([C@H]2c3c(cc(OC)c(O)c3OC)C[C@@H](CO)[C@@H]2CO[C@@H]2O[C@H](CO)[C@@H](O)[C@H](O)[C@H]2O)cc(OC)c1O
IC50 [8]: 14.2 µM (active)
IC50 [9]: 24.4 µM (inactive)

CCCCn1c(S)nnc1-c1nn(C)cc1Cl
IC50 [10]: > 59.6 µM (inactive)
IC50 [11]: > 59.6 µM (inactive)
IC50 [12]: > 59.6 µM (inactive)

CCC(CO)Oc1cc(NCc2cccc(C)c2)c2ncn(C(C)C)c2c1 (stereo unspecified)
IC50 [13]: 14 µM (active)
IC50 [14]: 12.6 µM (active)
IC50 [15]: 46.6 µM (active)

C[C@@H]1CN([C@H](C)CO)C(=O)c2cccc(NC(=O)c3ccncc3)c2O[C@@H]1CN(C)Cc1ccc(Cl)c(Cl)c1
IC50 [16]: > 100 µM (inactive)
IC50 [17]: > 100 µM (inactive)
IC50 [18]: 5.59 µM (inactive)
IC50 [19]: 5.59 µM (inactive)
IC50 [20]: 11.1 µM (inactive)

CCCOC(=O)N1C(=O)[C@@](CC)(c2ccc(C)cc2)N1C(=O)OCCC
IC50 [21]: 0.012 µM (active)

COc1ccc(-c2nc(NCCCN(C)C)c3ccccc3n2)cc1
AC50 [22]: 46.8 µM (active)
AC50 [23]: 2.39 µM (active)
AC50 [24]: 6 µM (active)

Cc1ccc(S(=O)(=O)N(C)C[C@@H]2Oc3c(NC(=O)c4nc5ccccc5s4)cccc3C(=O)N([C@H](C)CO)C[C@@H]2C)cc1
AC50 [25]: 24.8 µM (active)

C[C@@H]1CN([C@H](C)CO)S(=O)(=O)c2ccc(/C=C/c3ccccc3)cc2O[C@@H]1CN(C)C(=O)c1cccnc1
AC50 [26]: 2.93 µM (active)

O=C1C(N2CCOCC2)=Cc2cccc3cccc1c23
AC50 [27]: 1.09 µM (active)

CCOc1cc(/C=C2\CN(CC)C/C(=C\c3ccc(O)c(OCC)c3)C2=O)ccc1O
EC50 [28]: 3.15 µM (inconclusive)
EC50 [29]: 0.583 µM (active)
AC50 [30]: 12.5 µM (active)
IC50 [6]: 46.6 µM (active)
AC50 [31]: 9.14 µM (active)
AC50 [32]: 2.12 µM (active)
EC50 [33]: 3.65 µM (active)
EC50 [34]: 4.09 µM (active)
AC50 [35]: 14.7 µM (active)
